The results in this text go back to US7157256B2, “Method for producing para-hydroxystyrene and other multifunctional aromatic compounds using two-phase extractive fermentation” (E. I. du Pont de Nemours and Company, priority 2003, dated 2007).

“And” between values parts separate entries of the source, which are not always exact repeats. Identical values can stand only once.

Series [1] can be described thus: Partition of pHS between 2-undecanone and aqueous medium, 10 L fermentor. The note with it: 2-undecanone/aqueous. In kind it is physicochemical. On the procedure:
The pre-seed culture was E. coli strain WWQ51.1, as described in Example 3, frozen in glycerol. This culture was used to inoculate 500 mL of the seed medium consisting of KH2PO4 (0.15 g/L), Na2HPO4 (0.35 g/L), (NH4)2SO4 (3 g/L), MgSO4.7H2O (0.3 g/L), yeast extract (0.5 g/L), and MOPS (15.7 g/L). The medium was adjusted to pH 6.8 and steam sterilized. Then, glucose (10 g/L), kanamycin (50 mg/L) and ampicillin (100 mg/L) were aseptically added to give the final concentration given in parentheses. The seed culture was inoculated and grown in a 2 L flask incubated at 35° C. and 300 rpm for 12 h in an incubator shaker.
The fermentor medium consisted of: 6.2 L of H2O, 1.4 g KH2PO4, 3.5 g MgSO4.7H2O, 7 g (NH4)2SO4, 7 mL of Mazu DF204 Defoamer, obtained from BASF Corp. (Mt. Olive, N.J.), 7 mg thiamine, and 3 L of 2-undecanone, obtained from Bedoukian Research, Inc. (Danbury, Conn.). After sterilization of the medium, 250 g of a 50% w/v glucose solution and 140 mL of the trace element solution (as described in Example 1), were aseptically added. The pH of the medium was adjusted to 6.5. The final total volume of the fermentation medium was 10 L.
The seed culture was used to inoculate the fermentor medium in a 14 L Braun Fermentor, Biostat C. B. (Braun Biotech International, Melesungen, Germany). The fermentation conditions were as follows: temperature: 35° C., stir rate: 400–600 rpm, airflow: 2–16 SLPM, DO2: 25%, and pressure: 1 bar. Glucose was fed into the fermentor starting at a rate of 0.28 g/min. This rate was reduced when the glucose concentration rose above 2 g/L. IPTG (8 mL of a 0.5 M solution) was added when the glucose concentration fell below 4 g/L.
Samples of the aqueous and organic phases were collected at various times. The glucose, pHCA, CA, phenylalanine, tyrosine, and pHS concentrations, and the OD550 in the aqueous phase were determined, as described supra. The pHS concentration in the organic phase was measured using HPLC, as described supra.

Series [2] deals with E. coli TY1 (DGL430). Kind of series: Effect of pHCA and pHS on growth and fermentation of E. coli, shake flasks. The note with it: E. coli TY1 shake flask. It is filed as cell-based. On the procedure: This study was done using E. coli TY1 (DGL430), a tyrosine overproducing strain obtained from OmniGene Bioproducts, Inc. (Cambridge, Mass.). This strain also produces phenylalanine. The seed culture of this strain was propagated in a medium consisting of MgSO4.7H2O (0.5 g/L), (NH4)2SO4 (4 g/L), MOPS (20.9 g/L) and 10 mL of phosphate solution. The pH of the seed medium was adjusted to pH 6.8 and then the medium was steam-sterilized. The phosphate solution contained KH2PO4 (57.3 g/L) and K2HPO4 (110.2 g/L) and was adjusted to pH 6.8. The following solutions were then aseptically added to the seed medium to give the final concentration given in parentheses: thiamine (1 mg/L), glucose (1 g/L), lactose (15 g/L), 5 mL of a trace element solution, and tetracycline (5 mg/L). The trace element solution contained citric acid (10 g/L), CaCl2.2H2O (1.5 g/L), FeSO4.7H2O (5 g/L), ZnSO4.7H2O (0.39 g/L) and CuSO4.5H2O (0.38 g/L). The seed medium was inoculated from a frozen pre-seed culture and was grown in 250 mL baffled flasks in an Innova 4000 incubator shaker (New Brunswick Scientific Co., Edison, N.J.), incubated at 35° C. and 300 rpm for 12–16 h. One milliliter of this seed culture was used to inoculate each of the test cultures.
The test medium was 50 mL of an aqueous solution containing: (NH4)2SO4 (4 g), 1 mL of phosphate solution, MgSO4.7H2O (0.5 g), and MOPS (20.9 g), with the pH adjusted to 7.0. After sterilization of this medium, thiamine (1 mg/L), 5 mL of trace element solution, glucose (2 g/L), lactose (15 g/L), IPTG (0.5 mM), and tetracycline (10 mg/L) were aseptically added to give the final concentration given in parentheses. The 250 mL baffled flasks containing 50 mL of the test medium were inoculated with the seed culture and were incubated at 35° C. and 300 rpm for 42 h in the incubator shaker. Samples of the culture were taken at various times and the optical density at 550 nm (OD550) was measured spectrophotometrically. The pH of these samples was also measured. After completion of the fermentation, the tyrosine and phenylalanine concentrations in the culture were measured using HPLC, as described supra.
This experiment was repeated using pHS in place of pHCA.

Series [3] is described as follows: Partition of pHS between organic solvent and aqueous medium, two-phase flask fermentation. It is filed as physicochemical. The following applies: 15 h, 35° C. The protocol:
Samples were analyzed for tyrosine, phenylalanine, CA, pHCA, and pHS using reverse-phase chromatography with an Agilent HP1100 HPLC system equipped with an autosampler, diode-array detector, and ChemStation for data acquisition and processing (Agilent Technologies, Inc., Wilmington, Del.). The analyses were done using a 4.6 mm×15 cm Zorbax SB-C18 column (3.5 μm particle size), obtained from Agilent Technologies, Inc., thermostated at 35° C. The samples were run using a flow rate of 1.0 mL/min with an eight-minute solvent gradient from 5% acetonitrile/water, containing 0.1% trifluoroacetic acid, to 80% acetonitrile/water, containing 0.1% trifluoroacetic acid. A diode-array detector set at 210, 260, and 280 nm was used to detect the various compounds at their optimum absorbance wavelength.
The aqueous samples were diluted 1:3 with water, while the organic samples were diluted 1:3 with acetonitrile before injection of 50 μL of the sample into the HPLC. A standard mixture of the analytes was prepared by mixing equal portions of solutions of the individual components, each at a concentration of 1 mg/mL.
The strain used in this study was E. coli WWQ51.1, as described in Example 3. […] The OD550, pH, glucose concentration and the pHS concentration of the aqueous phases were measured as described in Example 3. The organic phases were analyzed for pHS using HPLC, as described supra.

As to `C=Cc1ccc(O)cc1` [pHS, para-hydroxystyrene], the Partition coeff. was 19 in series [1] (13.5 h); 14 in series [1] (15.9 h); 19 in series [1] (18.3 h); 27 in series [1] (20.2 h); 33 in series [1] (23.3 h); 45 in series [1] (25.5 h). The Partition coeff. is on record as 40 in series [1] (27.3 h); 19 in series [1] (33.6 h); 19 in series [1] (36.8 h); 21 in series [1] (39.3 h); 17 in series [1] (57.1 h); 22 in series [1] (59.4 h). Also, the Partition coeff. in series [1] (63.8 h) is recorded as 27. In addition, in series [2], the “concentration at which complete inhibition of growth / no growth was observed” value stood at 0.4 g/L. In addition, the “concentration that inhibited cell growth” value in series [2] is given as 0.2 g/L. In addition, the “pHS Partition coeff” value is 20 and 23 in series [3] (20 mL 2-undecanone / 50 mL test medium); 29 and 30 and 31 in series [3] (20 mL DBE / 50 mL test medium).
